The values that follow come from patent EP1803452A1, “ESTER DERIVATIVE AND PHARMACEUTICAL USE THEREOF” (Japan Tobacco, Inc., priority 2004, dated 2006).

Molecules are shown by their SMILES.

Data set [1] deals with T1, Microsomal triglyceride transfer protein (MTP) from human small intestine microsome (Homo sapiens, UniProt P55157).
T1 construct: Human small intestine microsome was dialyzed against 10 mM phosphate buffer; tissue Tissue Transforming Technologies, Inc; host or cells: Human small intestine microsomes, dialysed, centrifuged, and the supernatant purified on DEAE Sepharose (FPLC)
Description: Inhibition test of interliposomal triglyceride (TG) transfer activity by MTP. The format is biochemical. The following applies: purified MTP from human small intestine microsome, 14C-triolein donor/acceptor liposomes, 37 °C for 1.5 hours.
Description: Firstly, in order to prepare the donor, there were volatilized under a stream of nitrogen gas a phosphatidylcholine solution containing phosphatidylcholine labeled with ^3H, a cardiolipin solution, and a triolein solution containing triolein labeled with ^14C (each solution had been already dissolved in an appropriate organic solvent), or in order to prepare the acceptor, there were volatilized under nitrogen flow a phosphatidylcholine solution containing phosphatidylcholine labeled with ^3H and a cardiolipin solution (each solution had been already dissolved in an appropriate organic solvent). An appropriate amount of a reaction buffer (15 mM Tris-HCl buffer containing 1 mM EDTA.Na2, 40 mM NaCl, and 0.5% (w/v) bovine serum albumin, pH 7.4) was added thereto to be emulsified. […] Each of the resulting supernatant was used for donor or acceptor.
Each radioactivity in the acceptor and the donor was measured by liquid scintillation counter, and a mixed solution of the acceptor and the donor was prepared with a reaction buffer so as to be a donor-derived radioactivity of 16,000 dpm/400 µL and a acceptor-derived radioactivity of 4,000 dpm/400 µL. 400 µL of the mixed solution of the donor and the acceptor, 45 µL of the reaction buffer, 50 µL of MTP (20 µg/mL), and 5 µL of a sample dissolved in DMSO (dimethyl sulfoxide) or 5 µL of DMSO was mixed (total amount: 500 µL). The mixture was incubated at 37 °C for 1.5 hours. […] The radioactivity in the acceptor was measured by liquid scintillation counter. The value obtained by subtracting the radioactivity in a blank group from the radioactivity in the acceptor of a DMSO group was determined as MTP-mediated TG transfer activity, and it was compared with the value obtained by subtracting the radioactivity in the blank group from the radioactivity in a sample group. […] Inhibition rate (%) was calculated from values obtained according to the following equation. Inhibition rate(%) = (1 minus ((radioactivity of sample group minus radioactivity of blank group)/(radioactivity of DMSO group minus radioactivity of blank group))) × 100.

The nature of data set [2]: Metabolic stability test in liver S9. The conditions noted are these: pH 7.4, human liver S9 2 mg protein/mL, LC/MS; for remaining at 10 min: unchanged form after 10 minutes at 37°C, read-out: Remaining rate in human liver S9 (%/10min); for remaining at 1 h: unchanged form after 60 minutes at 37°C, read-out: Remaining rate in human liver S9 (%/60min). The class given is in vitro ADME. In outline:
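Compound from DMSO solution was incubated at 37°C with human liver S9 (final 2 mg protein/mL) in 100 mM potassium phosphate pH 7.4 with an NADPH-regenerating system for 0, 10 and 60 minutes. Reactions were stopped with acetonitrile/0.1% formic acid. Unchanged compound was measured by LC/MS as remaining rate (%) relative to zero time.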

Data set [3] in a line: Metabolic stability test in plasma. The following applies: LC/MS; for remaining at 10 min: unchanged form after 10 minutes at 37°C in human plasma, read-out: Remaining rate in human plasma (%/10min); for remaining at 1 h: unchanged form after 60 minutes at 37°C in human plasma, read-out: Remaining rate in human plasma (%/60min). The format is in vitro ADME, human. In a few lines:
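Remaining rate (%) versus zero time was derived from LC/MS measurement of parent compound after centrifugation. Plasma from human, mouse and hamster received DMSO-dissolved compound and was held at 37°C for 0, 10 or 60 minutes before acetonitrile containing formic acid (final 0.1%) stopped the reaction.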

Data set [4] in a line: Stability test in buffer (pH 7.4). The class given is physicochemical. The following applies: phosphate buffer/acetonitrile 7:3, 100 mM potassium phosphate buffer (pH 7.4) and acetonitrile 7:3 (v/v), LC/MS; for remaining at 10 min: 10 minutes at 37°C, read-out: Buf. remaining rate (%/10min); for remaining at 1 h: 60 minutes at 37°C, read-out: Buf. remaining rate (%/60min). In a few lines: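 Parent compound measured by LC/MS after 0, 10 or 60 min at 37°C in a 7:3 (v/v) mix of 100 mM potassium phosphate buffer and acetonitrile, with the reaction stopped by acetonitrile plus formic acid (final 0.1%). Percentage remaining is expressed relative to the zero-time amount.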

T1 sequence (P55157 19-894): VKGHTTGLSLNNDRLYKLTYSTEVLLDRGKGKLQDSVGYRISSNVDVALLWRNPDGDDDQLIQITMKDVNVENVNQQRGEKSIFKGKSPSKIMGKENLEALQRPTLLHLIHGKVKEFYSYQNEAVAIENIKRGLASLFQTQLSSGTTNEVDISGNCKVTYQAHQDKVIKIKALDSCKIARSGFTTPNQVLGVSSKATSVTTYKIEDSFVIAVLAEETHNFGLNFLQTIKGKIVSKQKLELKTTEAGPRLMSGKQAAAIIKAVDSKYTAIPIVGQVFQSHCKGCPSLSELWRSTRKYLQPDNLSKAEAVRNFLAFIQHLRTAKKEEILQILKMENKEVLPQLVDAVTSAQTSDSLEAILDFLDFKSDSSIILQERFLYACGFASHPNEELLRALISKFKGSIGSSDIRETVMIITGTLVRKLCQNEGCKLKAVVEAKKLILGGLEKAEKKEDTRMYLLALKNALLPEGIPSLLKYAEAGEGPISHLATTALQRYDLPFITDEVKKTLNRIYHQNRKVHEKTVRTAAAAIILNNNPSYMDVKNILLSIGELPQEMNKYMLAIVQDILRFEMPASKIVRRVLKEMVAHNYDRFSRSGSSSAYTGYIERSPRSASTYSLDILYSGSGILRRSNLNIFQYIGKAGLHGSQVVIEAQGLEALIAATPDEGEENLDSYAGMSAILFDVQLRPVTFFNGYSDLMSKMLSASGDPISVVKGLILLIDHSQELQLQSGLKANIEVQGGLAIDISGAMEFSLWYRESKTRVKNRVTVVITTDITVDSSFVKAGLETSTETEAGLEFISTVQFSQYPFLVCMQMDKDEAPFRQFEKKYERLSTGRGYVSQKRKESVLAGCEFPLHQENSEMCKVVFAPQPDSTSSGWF
T1 sequence (P07237 18-508 partner): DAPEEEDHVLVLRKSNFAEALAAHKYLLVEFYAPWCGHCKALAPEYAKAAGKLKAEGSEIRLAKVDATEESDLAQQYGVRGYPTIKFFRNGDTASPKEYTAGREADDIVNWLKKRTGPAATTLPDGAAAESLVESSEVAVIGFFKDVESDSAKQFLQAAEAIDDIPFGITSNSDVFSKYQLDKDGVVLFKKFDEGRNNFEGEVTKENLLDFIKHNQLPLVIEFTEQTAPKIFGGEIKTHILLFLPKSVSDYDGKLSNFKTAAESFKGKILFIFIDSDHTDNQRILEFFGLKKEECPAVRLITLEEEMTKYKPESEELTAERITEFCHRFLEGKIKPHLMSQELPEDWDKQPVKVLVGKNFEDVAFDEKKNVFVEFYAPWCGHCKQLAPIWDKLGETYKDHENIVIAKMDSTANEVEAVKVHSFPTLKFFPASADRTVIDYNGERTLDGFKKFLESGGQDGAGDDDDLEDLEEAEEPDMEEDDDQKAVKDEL

For `COC(=O)c1ccc(OC(=O)CCCc2ccc(NC(=O)c3ccc(C)cc3-c3ccc(C(F)(F)F)cc3)c(C(=O)N(C)C)c2)cc1` [Compound 1-9, 4-(4-{3-dimethylcarbamoyl-4-[(5-methyl-4'-trifluoromethylbiphenyl-2-carbonyl)amino]phenyl}butyryloxy) benzoic acid methyl ester], the “Human intestine MTP (IC50(nM))” value in data set [1] is “++ +”. Further, the figures for the remaining at 10 min in data set [2], in data set [3] and in data set [4] were 0%, 34% and 94%, respectively. Besides, the remaining at 1 h in data set [2] is 0%; in data set [3], 0%; in data set [4], 97%.

In the case of `COC(=O)c1cc(C(=O)OC(C)C)cc(C)c1OC(=O)CCCc1ccc(NC(=O)c2ccc(C)nc2-c2ccc(C(F)(F)F)cc2)c(C(=O)N(C)C)c1` [Compound 1-111, 4-[4-(3-dimethylcarbamoyl-4-{[6-methyl-2-(4-trifluoromethylphenyl)pyridine-3-carbonyl]amino}phenyl)butyryloxy]-5-methylisophthalic acid 1-isopropyl ester 3-methyl ester], the remaining at 10 min in data set [2] came out at 41%; in data set [3], 30%; in data set [4], 99%. For the same compound, the remaining at 1 h in data set [2] is 3%; in data set [3], 0%; in data set [4], 99%.

Regarding `CCOC(=O)c1cc(C)c(OC(=O)CCCc2ccc(NC(=O)c3ccc(C)nc3-c3ccc(C(F)(F)F)cc3)c(C(=O)N(C)C)c2)c(Cl)c1` [Compound 1-112, 3-chloro-4-[4-(3-dimethylcarbamoyl-4-{[6-methyl-2-(4-trifluoromethylphenyl)pyridine-3-carbonyl]amino}phenyl)butyryloxy]-5-methylbenzoic acid ethyl ester], the remaining at 10 min was found to be 27% in data set [2], 48% in data set [3] and 99% in data set [4]. In addition, the remaining at 1 h in data set [2] is 8%; in data set [3], 0%; in data set [4], 100%.

With `COc1cc(C(=O)OCC(=O)N(C)C)cc(Cl)c1OC(=O)CCCc1ccc(NC(=O)c2ccc(C)nc2-c2ccc(C(F)(F)F)cc2)c(C(=O)N(C)C)c1` [Compound 1-113, 3-chloro-4-[4-(3-dimethylcarbamoyl-4-{[6-methyl-2-(4-trifluoromethylphenyl)pyridine-3-carbonyl]amino}phenyl)butyryloxy]-5-methoxybenzoic acid dimethylcarbamoylmethyl ester], the results for the remaining at 10 min in data set [2], in data set [3] and in data set [4] were 8%, 1% and 103%, respectively. Besides, the figures for the remaining at 1 h in data set [2], in data set [3] and in data set [4] were 2%, 0% and 104%, respectively.

On to `COc1cc(C(=O)OCCNC(C)=O)cc(Cl)c1OC(=O)CCCc1ccc(NC(=O)c2ccc(C)nc2-c2ccc(C(F)(F)F)cc2)c(C(=O)N(C)C)c1` [Compound 1-114, 3-chloro-4-[4-(3-dimethylcarbamoyl-4-{[6-methyl-2-(4-trifluoromethylphenyl)pyridine-3-carbonyl]amino}phenyl)butyryloxy]-5-methoxybenzoic acid 2-acetylaminoethyl ester], for which the remaining at 10 min stood at 14% in data set [2], 2% in data set [3] and 104% in data set [4]. Besides, the remaining at 1 h was 3% in data set [2], 0% in data set [3] and 108% in data set [4].

Consider `CC(C)n1nnc(-c2ccc(OC(=O)CCCc3ccc(NC(=O)c4ccccc4-c4ccc(C(F)(F)F)cc4)c(C(=O)N(C)C)c3)cc2)n1` [Compound 1-115, 4-(3-dimethylcarbamoyl-4-{(4'-trifluoromethylbiphenyl-2-carbonyl)amino}phenyl)butyric acid 4-(2-isopropyl-2H-tetrazol-5-yl)phenyl ester], for which the remaining at 10 min in data set [2] turned out to be 0%; in data set [3], 85%; in data set [4], 98%. Moreover, the values for the remaining at 1 h in data set [2], in data set [3] and in data set [4] were 0%, 40% and 98%, respectively.

Turning to `COC(=O)c1ccc(OC(=O)CN(C)Cc2ccc(NC(=O)c3ccccc3-c3ccc(C(F)(F)F)cc3)c(C(=O)N(C)C)c2)cc1` [Compound 2-1, 4-[2-({3-dimethylcarbamoyl-4-[(4'-trifluoromethylbiphenyl-2-carbonyl)amino]benzyl}methylamino)acetoxy]benzoic acid methyl ester], the remaining at 10 min stood at 0% in data set [2], 47% in data set [3] and 95% in data set [4]. Moreover, the remaining at 1 h came out at 0% in data set [2], 0% in data set [3] and 95% in data set [4].

On to `COC(=O)c1ccc(OC(=O)C2CCN(c3ccc(NC(=O)c4ccccc4-c4ccc(C(F)(F)F)cc4)c(C(=O)N(C)C)c3)CC2)cc1` [Compound 3-1, 1-(3-dimethylcarbamoyl-4-[(4'-trifluoromethylbiphenyl-2-carbonyl)amino]phenyl}piperidine-4-carboxylic acid 4-methoxycarbonylphenyl ester], for which the remaining at 10 min in data set [2] is 2%; in data set [3], 63%; in data set [4] it was 98%. In addition, the remaining at 1 h worked out at 0% in data set [2], 6% in data set [3] and 102% in data set [4].

With `COC(=O)c1ccc(OC(=O)C2CCN(c3ccc(NC(=O)c4ccccc4-c4ccc(C(F)(F)F)cc4)c(C(=O)N(C)C)c3)CC2)c(F)c1` [Compound 3-2, 1-{3-dimethylcarbamoyl-4-[(4'-trifluoromethylbiphenyl-2-carbonyl)amino]phenyl}piperidine-4-carboxylic acid 2-fluoro-4-methoxycarbonylphenyl ester], the remaining at 10 min amounted to 2% in data set [2], 24% in data set [3] and 94% in data set [4]. In addition, the values for the remaining at 1 h in data set [2], in data set [3] and in data set [4] were 0%, 0% and 97%, respectively.

Regarding `COC(=O)c1ccc(-c2nc(C)ccc2C(=O)Nc2ccc(CCCC(=O)Oc3c(C)cc(C(=O)OC)cc3Cl)cc2C(=O)N(C)C)cc1` [Compound 4-1, 3-chloro-4-[4-(3-dimethylcarbamoyl-4-{[2-(4-methoxycarbonylphenyl)-6-methylpyridine-3-carbonyl]amino}phenyl)butyryloxy]-5-methylbenzoic acid methyl ester], the remaining at 10 min in data set [2] was 0%; in data set [3] it was 25%; in data set [4], 99%. The remaining at 1 h in data set [2] was found to be 0%; in data set [3] it was 0%; in data set [4] it was 101%.

With `COC(=O)c1ccc(-c2nc(C)ccc2C(=O)Nc2ccc(CCCC(=O)Oc3c(C)cc(C(=O)OC)cc3C(=O)OC)cc2C(=O)N(C)C)cc1` [Compound 4-2, 4-[4-(3-dimethylcarbamoyl-4-{[2-(4-methoxycarbonylphenyl)-6-methylpyridine-3-carbonyl]amino}phenyl)butyryloxy]-5-methylisophthalic acid dimethyl ester], the remaining at 10 min in data set [2] is 2%; in data set [3], 34%; in data set [4], 98%. Moreover, the remaining at 1 h was found to be 0% in data set [2], 0% in data set [3] and 97% in data set [4].

`COC(=O)c1ccc(OC(=O)CCCc2ccc(NC(=O)c3ccccc3-c3ccc(C(=O)OC)cc3)c(C(=O)N(C)C)c2)cc1` [Compound 4-3, 2'-{2-dimethylcarbamoyl-4-[3-(4-methoxycarbonylphenoxycarbonyl)propyl]phenylcarbamoyl}biphenyl-4-carboxylic acid methyl ester]: the remaining at 10 min is 1% in data set [2], 0% in data set [3] and 101% in data set [4]. Besides, the remaining at 1 h in data set [2] stood at 0%; in data set [3], 0%; in data set [4], 102%.

`COC(=O)c1ccc(-c2nc(C)ccc2C(=O)Nc2ccc(CCCC(=O)Oc3c(Cl)cc(C(=O)OC)cc3OC)cc2C(=O)N(C)C)cc1` [Compound 4-4, 3-chloro-4-[4-(3-dimethylcarbamoyl-4-{[2-(4-methoxycarbonylphenyl)-6-methylpyridine-3-carbonyl]amino}phenyl)butyryloxy]-5-methoxybenzoic acid methyl ester]: the remaining at 10 min in data set [2] was found to be 4%; in data set [3], 0%; in data set [4], 99%. Further, the remaining at 1 h in data set [2] came out at 0%; in data set [3], 0%; in data set [4], 97%.
